Consider one molecule from patent US10968222B2, “2-azabicyclo hexane JAK inhibitor compound” (THERAVANCE BIOPHARMA R&D IP, LLC, priority 2018, dated 2021).

The target in one test is T1, JAK3 (Homo sapiens, UniProt P52333).
T1 construct: GST; purchased Life Technologies
Description: Biochemical JAK kinase assay (LanthaScreen), JAK3. The conditions noted are these: converted from pIC50 by Cheng-Prusoff; 1.6 μM ATP; read-out: JAK 3 pKi (converted). How it is done:
(§1) A panel of four LanthaScreen JAK biochemical assays (JAK1, 2, 3 and Tyk2) were carried in a common kinase reaction buffer (50 mM HEPES, pH 7.5, 0.01% Brij-35, 10 mM MgCl2, and 1 mM EGTA). Recombinant GST-tagged JAK enzymes and a GFP-tagged STAT1 peptide substrate were obtained from Life Technologies.
(§2) Serially diluted compound was pre-incubated with each of the four JAK enzymes and the substrate in white 384-well microplates (Corning) at ambient temperature for 1 h. ATP was subsequently added to initiate the kinase reactions in 10 μL total volume, with 1% DMSO. […] The plates were allowed to incubate at ambient temperature for 1 h before being read on the EnVision reader (Perkin Elmer). Emission ratio signals (520 nm/495 nm) were recorded and utilized to calculate the percent inhibition values based on DMSO and background controls.
(§3) For dose-response analysis, percent inhibition data were plotted vs. compound concentrations, and IC50 values were determined from a 4-parameter robust fit model with the Prism software (GraphPad Software). Results were expressed as pIC50 (negative logarithm of IC50) and subsequently converted to pKi (negative logarithm of dissociation constant, Ki) using the Cheng-Prusoff equation.
(In general: Time-resolved FRET reads energy transfer from a long-lived donor to a nearby acceptor.)

In the next test the target is T2, Tyk2 (Homo sapiens, UniProt P29597).
T2 construct: GST; purchased Life Technologies
T2 sequence (P29597 whole entry): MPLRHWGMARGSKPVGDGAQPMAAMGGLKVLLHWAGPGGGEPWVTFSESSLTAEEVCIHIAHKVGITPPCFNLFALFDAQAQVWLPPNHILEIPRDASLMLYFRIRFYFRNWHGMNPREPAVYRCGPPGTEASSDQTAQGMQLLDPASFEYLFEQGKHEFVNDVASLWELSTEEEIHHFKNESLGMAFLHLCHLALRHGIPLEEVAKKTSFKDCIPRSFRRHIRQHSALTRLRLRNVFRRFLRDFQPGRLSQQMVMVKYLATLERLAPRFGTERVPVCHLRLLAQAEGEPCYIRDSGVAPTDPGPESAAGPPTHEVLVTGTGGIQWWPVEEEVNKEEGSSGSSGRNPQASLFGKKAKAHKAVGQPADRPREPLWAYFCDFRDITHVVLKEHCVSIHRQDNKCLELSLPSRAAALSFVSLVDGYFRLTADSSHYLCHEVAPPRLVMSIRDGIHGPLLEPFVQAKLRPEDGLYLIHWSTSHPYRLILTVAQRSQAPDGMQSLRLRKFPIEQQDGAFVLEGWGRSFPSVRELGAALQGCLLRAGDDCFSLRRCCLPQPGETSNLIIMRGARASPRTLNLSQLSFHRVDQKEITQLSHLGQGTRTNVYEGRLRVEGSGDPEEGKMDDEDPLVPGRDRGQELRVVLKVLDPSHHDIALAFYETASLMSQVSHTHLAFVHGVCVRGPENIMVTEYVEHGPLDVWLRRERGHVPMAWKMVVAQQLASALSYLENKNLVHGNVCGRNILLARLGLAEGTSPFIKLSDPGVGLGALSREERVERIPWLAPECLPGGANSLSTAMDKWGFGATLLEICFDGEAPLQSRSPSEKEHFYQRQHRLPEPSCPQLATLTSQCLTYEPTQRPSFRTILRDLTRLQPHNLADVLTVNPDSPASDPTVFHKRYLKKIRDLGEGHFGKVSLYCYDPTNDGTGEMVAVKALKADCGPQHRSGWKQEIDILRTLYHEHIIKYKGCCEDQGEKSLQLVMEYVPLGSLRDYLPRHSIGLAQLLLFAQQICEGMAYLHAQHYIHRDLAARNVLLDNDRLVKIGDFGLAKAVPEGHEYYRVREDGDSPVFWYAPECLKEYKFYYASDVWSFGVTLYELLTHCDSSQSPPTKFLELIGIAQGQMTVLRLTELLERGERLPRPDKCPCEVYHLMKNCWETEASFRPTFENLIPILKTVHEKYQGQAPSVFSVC
Description: Biochemical JAK kinase assay (LanthaScreen), Tyk2. To be noted: converted from pIC50 by Cheng-Prusoff; 10 μM ATP; read-out: Tyk 2 pKi (converted). How it is done:
as §1, §2, §3

For test [1], the system named is IL-13 induced STAT6 phosphorylation in BEAS-2B human lung epithelial cells. The test can be described thus: Inhibition of IL-13 stimulated pSTAT6 in BEAS-2B cells. The conditions noted are these: AlphaScreen, read-out: pIC50, inhibition of IL-13 stimulated pSTAT6 (converted). It is filed as cell-based. How it is done: The AlphaScreen JAKI cellular potency assay was carried out by measuring interleukin-13 (IL-13, R&D Systems) induced STAT6 phosphorylation in BEAS-2B human lung epithelial cells (ATCC). The anti-STAT6 antibody (Cell Signaling Technologies) was conjugated to AlphaScreen acceptor beads (Perkin Elmer), while the anti-pSTAT6 (pTyr641) antibody (Cell Signaling Technologies) was biotinylated using EZ-Link Sulfo-NHS-Biotin (Thermo Scientific).
BEAS-2B cells were grown at 37° C. in a 5% CO2 humidified incubator in 50% DMEM/50% F-12 medium (Life Technologies) supplemented with 10% FBS (Hyclone), 100 U/mL penicillin, 100 μg/mL streptomycin (Life Technologies), and 2 mM GlutaMAX (Life Technologies). On day 1 of the assay, cells were seeded at a 7,500 cells/well density in white poly-D-lysine-coated 384-well plates (Corning) with 25 μL medium, and were allowed to adhere overnight in the incubator. […] After a minimum of 2 h incubation, the assay plates were read on the EnVision plate reader. AlphaScreen luminescence signals were recorded and utilized to calculate the percent inhibition values based on DMSO and background controls.
For dose-response analysis, percent inhibition data were plotted vs. compound concentrations, and IC50 values were determined from a 4-parameter robust fit model with the Prism software. Results may also be expressed as the negative logarithm of the IC50 value, pIC50.
For orientation: In Alpha technology, singlet oxygen from a donor bead excites a nearby acceptor bead.

In another test the target is T3, CSF1R (Homo sapiens, UniProt P07333).
T3 construct: made in house; host or cells: E. coli BL21-derived host (T7 phage) or HEK-293 cells
T3 sequence (P07333 20-972): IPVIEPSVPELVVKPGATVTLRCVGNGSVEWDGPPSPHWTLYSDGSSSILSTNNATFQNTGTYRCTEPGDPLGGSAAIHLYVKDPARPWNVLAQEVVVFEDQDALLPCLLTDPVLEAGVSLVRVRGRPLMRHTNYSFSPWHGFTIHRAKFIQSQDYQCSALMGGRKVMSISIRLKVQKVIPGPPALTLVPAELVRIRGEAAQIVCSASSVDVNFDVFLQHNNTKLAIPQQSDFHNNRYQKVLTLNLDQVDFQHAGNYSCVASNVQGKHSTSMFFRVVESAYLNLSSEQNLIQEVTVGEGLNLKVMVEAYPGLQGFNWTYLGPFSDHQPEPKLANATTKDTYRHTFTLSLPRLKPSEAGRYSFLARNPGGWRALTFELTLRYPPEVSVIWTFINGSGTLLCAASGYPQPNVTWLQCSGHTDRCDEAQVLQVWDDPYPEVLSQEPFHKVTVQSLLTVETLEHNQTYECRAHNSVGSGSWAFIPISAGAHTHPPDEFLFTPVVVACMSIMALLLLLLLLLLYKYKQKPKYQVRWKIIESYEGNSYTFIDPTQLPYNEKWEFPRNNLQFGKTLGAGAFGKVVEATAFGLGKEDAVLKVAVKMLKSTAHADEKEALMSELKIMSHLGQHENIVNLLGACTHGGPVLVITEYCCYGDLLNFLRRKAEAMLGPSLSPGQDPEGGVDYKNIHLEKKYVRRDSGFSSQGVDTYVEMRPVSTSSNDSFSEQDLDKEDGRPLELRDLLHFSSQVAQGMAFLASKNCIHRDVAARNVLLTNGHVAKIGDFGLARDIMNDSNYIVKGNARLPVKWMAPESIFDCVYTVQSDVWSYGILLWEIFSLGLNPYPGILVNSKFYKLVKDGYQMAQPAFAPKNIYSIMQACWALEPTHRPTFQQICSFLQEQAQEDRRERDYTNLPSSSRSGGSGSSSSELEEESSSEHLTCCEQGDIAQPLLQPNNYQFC
Description: Kinome screen, CSF1R. It is filed as binding. The conditions noted are these: screened at 1 μM. How it is done: (§4) Compounds 1 and C-1 were screened against other kinases to evaluate their selectivity profile.
(§5) Kinase-tagged T7 phage strains were grown in parallel in 24-well blocks in an E. coli host derived from the BL21 strain. E. coli were grown to log-phase and infected with T7 phage from a frozen stock (multiplicity of infection=0.4) and incubated with shaking at 32° C. until lysis (90-150 minutes). The lysates were centrifuged (6,000×g) and filtered (0.2 μm) to remove cell debris. The remaining kinases were produced in HEK-293 cells and subsequently tagged with DNA for qPCR detection.
(§6) Streptavidin-coated magnetic beads were treated with biotinylated small molecule ligands for 30 minutes at room temperature to generate affinity resins for kinase assays. The liganded beads were blocked with excess biotin and washed with blocking buffer (SeaBlock (Pierce), 1% BSA, 0.05% Tween 20, 1 mM DTT) to remove unbound ligand and to reduce non-specific phage binding. Binding reactions were assembled by combining kinases, liganded affinity beads, and test compounds in 1× binding buffer (20% SeaBlock, 0.17×PBS, 0.05% Tween 20, 6 mM DTT). Test compounds were prepared as 40× stocks in 100% DMSO and directly diluted into the assay. All reactions were performed in polypropylene 384-well plates in a final volume of 0.04 ml. […] The kinase concentration in the eluates was measured by qPCR. […]

In a further test the target is T4, SLK (Homo sapiens, UniProt Q9H2G2).
T4 construct: made in house; host or cells: E. coli BL21-derived host (T7 phage) or HEK-293 cells
T4 sequence (Q9H2G2 whole entry): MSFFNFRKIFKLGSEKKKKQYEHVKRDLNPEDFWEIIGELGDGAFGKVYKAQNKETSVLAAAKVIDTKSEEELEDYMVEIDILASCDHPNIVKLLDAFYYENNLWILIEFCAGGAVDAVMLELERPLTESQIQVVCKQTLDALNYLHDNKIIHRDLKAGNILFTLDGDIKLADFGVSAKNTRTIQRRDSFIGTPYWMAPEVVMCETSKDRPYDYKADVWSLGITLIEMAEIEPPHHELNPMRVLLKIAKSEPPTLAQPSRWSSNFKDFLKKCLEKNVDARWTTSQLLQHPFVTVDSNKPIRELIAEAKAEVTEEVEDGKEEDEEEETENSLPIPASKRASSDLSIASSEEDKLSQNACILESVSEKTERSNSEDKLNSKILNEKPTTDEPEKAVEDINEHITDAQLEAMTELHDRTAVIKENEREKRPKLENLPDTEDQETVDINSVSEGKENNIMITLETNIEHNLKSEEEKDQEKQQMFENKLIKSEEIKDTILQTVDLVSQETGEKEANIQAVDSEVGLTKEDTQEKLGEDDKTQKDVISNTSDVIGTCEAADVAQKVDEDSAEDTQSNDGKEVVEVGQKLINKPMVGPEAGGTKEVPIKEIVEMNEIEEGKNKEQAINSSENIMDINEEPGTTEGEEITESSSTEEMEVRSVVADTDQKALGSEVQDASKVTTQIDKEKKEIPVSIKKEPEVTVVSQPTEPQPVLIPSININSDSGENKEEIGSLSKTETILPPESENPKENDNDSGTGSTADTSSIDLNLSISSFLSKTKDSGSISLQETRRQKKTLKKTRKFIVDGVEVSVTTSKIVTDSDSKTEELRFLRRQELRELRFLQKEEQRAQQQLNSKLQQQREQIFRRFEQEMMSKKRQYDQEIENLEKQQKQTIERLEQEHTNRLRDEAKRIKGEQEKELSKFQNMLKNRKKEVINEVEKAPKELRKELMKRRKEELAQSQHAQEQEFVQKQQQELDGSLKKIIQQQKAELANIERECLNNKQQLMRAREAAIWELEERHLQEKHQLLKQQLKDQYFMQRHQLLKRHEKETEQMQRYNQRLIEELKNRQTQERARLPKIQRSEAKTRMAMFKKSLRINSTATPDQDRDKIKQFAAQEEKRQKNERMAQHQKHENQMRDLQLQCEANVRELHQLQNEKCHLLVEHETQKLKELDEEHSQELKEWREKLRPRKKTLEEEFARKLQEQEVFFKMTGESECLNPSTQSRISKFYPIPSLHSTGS
The test can be described thus: Kinome screen, SLK. The class given is binding. To be noted: screened at 1 μM. How it is done:
as §4, §5, §6

The target in the next test is T5, SRC (Homo sapiens, UniProt P12931).
T5 construct: made in house; host or cells: E. coli BL21-derived host (T7 phage) or HEK-293 cells
T5 sequence (P12931 whole entry): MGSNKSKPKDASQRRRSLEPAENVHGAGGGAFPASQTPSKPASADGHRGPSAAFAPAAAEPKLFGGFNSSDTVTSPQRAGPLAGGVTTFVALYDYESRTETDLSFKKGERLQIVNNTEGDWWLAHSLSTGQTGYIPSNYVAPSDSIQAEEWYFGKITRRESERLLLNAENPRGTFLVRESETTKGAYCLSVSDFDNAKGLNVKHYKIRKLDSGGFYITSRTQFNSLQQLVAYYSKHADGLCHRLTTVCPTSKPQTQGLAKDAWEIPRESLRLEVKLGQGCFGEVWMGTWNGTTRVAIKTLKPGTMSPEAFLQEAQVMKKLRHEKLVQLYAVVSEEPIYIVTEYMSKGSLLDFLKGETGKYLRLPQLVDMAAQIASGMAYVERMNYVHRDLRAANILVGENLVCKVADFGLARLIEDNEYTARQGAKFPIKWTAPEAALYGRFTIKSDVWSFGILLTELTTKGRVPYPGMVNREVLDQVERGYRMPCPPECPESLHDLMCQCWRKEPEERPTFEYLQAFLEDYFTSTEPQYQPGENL
The test can be described thus: Kinome screen, SRC. It is filed as binding. To be noted: screened at 1 μM. How it is done: as §4, §5, §6

The next test addresses T6, SYK (Homo sapiens, UniProt P43405).
T6 construct: made in house; host or cells: E. coli BL21-derived host (T7 phage) or HEK-293 cells
The test can be described thus: Kinome screen, SYK. The class given is binding. To be noted: screened at 1 μM. How it is done: as §4, §5, §6

The structures appear in SMILES notation.

T1 sequence (P52333 whole entry): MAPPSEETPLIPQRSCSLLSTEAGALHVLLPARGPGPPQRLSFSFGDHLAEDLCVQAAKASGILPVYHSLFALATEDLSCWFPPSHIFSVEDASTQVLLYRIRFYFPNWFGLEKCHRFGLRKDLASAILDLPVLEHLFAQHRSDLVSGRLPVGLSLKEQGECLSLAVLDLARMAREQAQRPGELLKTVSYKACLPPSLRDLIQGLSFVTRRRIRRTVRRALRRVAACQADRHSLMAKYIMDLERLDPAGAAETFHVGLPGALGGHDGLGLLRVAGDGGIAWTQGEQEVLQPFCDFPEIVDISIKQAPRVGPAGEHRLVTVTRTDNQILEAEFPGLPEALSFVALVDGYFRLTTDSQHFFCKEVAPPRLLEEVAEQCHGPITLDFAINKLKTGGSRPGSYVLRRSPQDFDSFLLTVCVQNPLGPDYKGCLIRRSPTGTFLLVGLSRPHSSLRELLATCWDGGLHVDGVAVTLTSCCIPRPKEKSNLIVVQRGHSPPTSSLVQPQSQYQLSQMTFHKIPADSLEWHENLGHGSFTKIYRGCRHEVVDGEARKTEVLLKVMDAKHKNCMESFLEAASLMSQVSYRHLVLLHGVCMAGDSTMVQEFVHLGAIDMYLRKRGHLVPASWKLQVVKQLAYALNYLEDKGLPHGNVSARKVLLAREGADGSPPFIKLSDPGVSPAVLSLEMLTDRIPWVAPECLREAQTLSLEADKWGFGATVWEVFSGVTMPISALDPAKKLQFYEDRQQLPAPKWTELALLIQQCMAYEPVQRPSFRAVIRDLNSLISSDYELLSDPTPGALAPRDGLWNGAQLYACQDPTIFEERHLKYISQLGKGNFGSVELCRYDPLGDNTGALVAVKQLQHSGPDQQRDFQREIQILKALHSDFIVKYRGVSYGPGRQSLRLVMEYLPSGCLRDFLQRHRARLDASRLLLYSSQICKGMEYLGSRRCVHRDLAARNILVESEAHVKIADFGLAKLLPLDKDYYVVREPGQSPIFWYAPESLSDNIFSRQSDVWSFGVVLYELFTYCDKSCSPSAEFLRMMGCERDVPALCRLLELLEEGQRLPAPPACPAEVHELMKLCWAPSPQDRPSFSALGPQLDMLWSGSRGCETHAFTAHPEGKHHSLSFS

One may read the inhibition as the share of the control response that was lost under treatment. Higher therefore signals a strong effect. Regarding `CCc1cc(O)c(F)cc1-c1cc(F)c2c(-c3nc4c([nH]3)CCN(C(=O)[C@]35C[C@H]3CCN5)C4)n[nH]c2c1` [Compound 1, (1S,5R)-2-azabicyclo[3.1.0]hexan-1-yl(2-(6-(2-ethyl-5-fluoro-4-hydroxyphenyl)-4-fluoro-1H-indazol-3-yl)-6,7-dihydro-3H-imidazo[4,5-c]pyridin-5(4H)-yl)methanone], the figures for the Ki on JAK3 and at Tyk2 were 0.251 nM and 2.51 nM, respectively. Also, the IC50 in test [1] is 10 nM. The inhibition at 1 µM on CSF1R worked out at 98%; at SLK, 100%; at SRC it was 65%; against SYK, 44%.
